Assay results published in PubChem BioAssay AID256 (DTP/NCI, 2004).
Several values for one entry are separate records, joined by “and”; a condition that tells them apart may be missing. Equal values may be shown once. Toxic doses and inconclusive results are not listed.

Tested on: CD2F1 mice, L1210 leukemia ip, survival T/C
Assay: NCI In Vivo Anticancer Drug Screen. Data for tumor model L1210 Leukemia (intraperitoneal) in CD2F1 (CDF1) mice
Details: higher = longer survival
Procedure, shortened: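 Transplantable tumor in mice; compound-treated vs vehicle-treated groups. Read-out = treated/control ratio of the measured endpoint.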

[1] = endpoint: mean survival time, dose: 5.0 mg/kg/injection, schedule: Q01DX009 (ip), vehicle: saline with Tween-80
[2] = endpoint: mean survival time, dose: 10.0 mg/kg/injection, schedule: Q01DX009 (ip), vehicle: saline with Tween-80
[3] = endpoint: mean survival time, dose: 20.0 mg/kg/injection, schedule: Q01DX009 (ip), vehicle: saline with Tween-80
[4] = endpoint: mean survival time, dose: 100.0 mg/kg/injection, schedule: Q04DX003 (ip), vehicle: saline with Tween-80
[5] = endpoint: mean survival time, dose: 200.0 mg/kg/injection, schedule: Q04DX003 (ip), vehicle: saline with Tween-80
[6] = endpoint: mean survival time, dose: 400.0 mg/kg/injection, schedule: Q04DX003 (ip), vehicle: saline with Tween-80
[7] = endpoint: mean survival time, dose: 25.0 mg/kg/injection, schedule: Q04DX003 (ip), vehicle: saline with Tween-80

NC(Cc1ccc(N(CCCl)CCCl)cc1)C(=O)O (stereo unspecified)
T/C (endpoint: mean survival time, dose: 5.0 mg/kg/injection, schedule: Q01DX009 (ip), vehicle: Klucel (hydroxypropylcellulose) (HPC)): 106 % of control | T/C [1]: 121 % of control | T/C (endpoint: mean survival time, dose: 6.4 mg/kg/injection, schedule: Q01DX001 (ip), vehicle: water): 104 % of control | T/C (endpoint: mean survival time, dose: 6.4 mg/kg/injection, schedule: Q11HX001 (ip), vehicle: water): 104 % of control | T/C (endpoint: mean survival time, dose: 8.0 mg/kg/injection, schedule: Q01DX001 (ip), vehicle: water): 101 % of control | T/C (endpoint: mean survival time, dose: 8.0 mg/kg/injection, schedule: Q11HX001 (ip), vehicle: water): 101 % of control | T/C (endpoint: mean survival time, dose: 10.0 mg/kg/injection, schedule: Q01DX001 (ip), vehicle: water): 105 % of control | T/C (endpoint: mean survival time, dose: 10.0 mg/kg/injection, schedule: Q01DX009 (ip), vehicle: Klucel (hydroxypropylcellulose) (HPC)): 105 % of control | T/C [2]: 113 % of control | T/C (endpoint: mean survival time, dose: 10.0 mg/kg/injection, schedule: Q03DX003 (ip), vehicle: Klucel (hydroxypropylcellulose) (HPC)): 183 % of control | T/C (endpoint: mean survival time, dose: 10.0 mg/kg/injection, schedule: Q04DX003 (ip), vehicle: Klucel (hydroxypropylcellulose) (HPC)): 168 % of control | T/C (endpoint: mean survival time, dose: 10.0 mg/kg/injection, schedule: Q11HX001 (ip), vehicle: water): 105 % of control | T/C (endpoint: mean survival time, dose: 12.5 mg/kg/injection, schedule: Q01DX001 (ip), vehicle: water): 104 % of control | T/C (endpoint: mean survival time, dose: 12.5 mg/kg/injection, schedule: Q11HX001 (ip), vehicle: water): 104 % of control | T/C (endpoint: mean survival time, dose: 20.0 mg/kg/injection, schedule: Q01DX007 (ip), vehicle: Klucel (hydroxypropylcellulose) (HPC)): 94 % of control | T/C (endpoint: mean survival time, dose: 20.0 mg/kg/injection, schedule: Q01DX007 (ip), vehicle: saline with Tween-80): 113 % of control | T/C (endpoint: mean survival time, dose: 20.0 mg/kg/injection, schedule: Q01DX009 (ip), vehicle: Klucel (hydroxypropylcellulose) (HPC)): 86 % of control | T/C [3]: 100 % of control | T/C (endpoint: mean survival time, dose: 20.0 mg/kg/injection, schedule: Q04DX003 (ip), vehicle: Klucel (hydroxypropylcellulose) (HPC)): 186 % of control | T/C (endpoint: median survival time, dose: 4.0 mg/kg/injection, schedule: Q01DX009 (ip), vehicle: saline): 183 % of control | T/C (endpoint: median survival time, dose: 8.0 mg/kg/injection, schedule: Q01DX009 (ip), vehicle: saline): 155 % of control | T/C (endpoint: median survival time, dose: 16.0 mg/kg/injection, schedule: Q01DX009 (ip), vehicle: saline): 88 % of control

Nc1ccc(CCCCc2ccccc2)cc1
T/C (endpoint: mean survival time, dose: 100.0 mg/kg/injection, schedule: Q04DX003 (ip), vehicle: acetone): 107 % of control

CC1OC1C(=O)C1(O)C(C)C(O)C23OC2(C(O)c2c(O)cccc2C3=O)C1O (stereo unspecified)
T/C (endpoint: mean survival time, dose: 0.5 mg/kg/injection, schedule: Q01DX009 (ip), vehicle: Klucel (hydroxypropylcellulose) (HPC)): 98 % of control and 101 % of control | T/C (endpoint: mean survival time, dose: 1.0 mg/kg/injection, schedule: Q01DX009 (ip), vehicle: Klucel (hydroxypropylcellulose) (HPC)): 98 % of control and 102 % of control (2×) | T/C (endpoint: mean survival time, dose: 2.0 mg/kg/injection, schedule: Q01DX009 (ip), vehicle: Klucel (hydroxypropylcellulose) (HPC)): 104 % of control and 105 % of control and 107 % of control | T/C (endpoint: mean survival time, dose: 4.0 mg/kg/injection, schedule: Q01DX009 (ip), vehicle: Klucel (hydroxypropylcellulose) (HPC)): 114 % of control and 102 % of control and 103 % of control | T/C (endpoint: mean survival time, dose: 8.0 mg/kg/injection, schedule: Q01DX009 (ip), vehicle: Klucel (hydroxypropylcellulose) (HPC)): 120 % of control and 104 % of control and 109 % of control | T/C (endpoint: mean survival time, dose: 16.0 mg/kg/injection, schedule: Q01DX009 (ip), vehicle: Klucel (hydroxypropylcellulose) (HPC)): 104 % of control

O=[N+]([O-])c1cc(C2CCCCC2)c(O)c([N+](=O)[O-])c1
T/C [1]: 98 % of control | T/C [2]: 93 % of control | T/C [3]: 89 % of control

C[n+]1cccc(/C=C/C(=O)Nc2ccccc2)c1
T/C [4]: 99 % of control | T/C [5]: 87 % of control

CCC(=O)NC1=C(Cl)C(=O)c2ccccc2C1=O
T/C (endpoint: mean survival time, dose: 5.0 mg/kg/injection, schedule: Q01DX001 (ip), vehicle: saline): 91 % of control | T/C (endpoint: mean survival time, dose: 10.0 mg/kg/injection, schedule: Q01DX001 (ip), vehicle: saline): 101 % of control | T/C (endpoint: mean survival time, dose: 20.0 mg/kg/injection, schedule: Q01DX001 (ip), vehicle: saline): 97 % of control

CC1=C(C)CN(c2ccccc2)SC1
T/C [4]: 98 % of control | T/C [5]: 98 % of control | T/C [6]: 98 % of control

Cl
T/C (endpoint: mean survival time, dose: 6.25 mg/kg/injection, schedule: Q01DX009 (ip), vehicle: saline sonified): 103 % of control | T/C (endpoint: mean survival time, dose: 6.25 mg/kg/injection, schedule: Q04DX003 (ip), vehicle: saline with Tween-80): 100 % of control | T/C (endpoint: mean survival time, dose: 12.5 mg/kg/injection, schedule: Q01DX009 (ip), vehicle: saline sonified): 101 % of control | T/C (endpoint: mean survival time, dose: 12.5 mg/kg/injection, schedule: Q04DX003 (ip), vehicle: saline with Tween-80): 98 % of control | T/C (endpoint: mean survival time, dose: 25.0 mg/kg/injection, schedule: Q01DX009 (ip), vehicle: saline sonified): 106 % of control | T/C [7]: 98 % of control

O=C1C=C(Nc2ccc([N+](=O)[O-])cc2Cl)c2ccccc2C1=O
T/C (endpoint: mean survival time, dose: 75.0 mg/kg/injection, schedule: Q01DX001 (ip), vehicle: saline): 100 % of control | T/C (endpoint: mean survival time, dose: 150.0 mg/kg/injection, schedule: Q01DX001 (ip), vehicle: saline): 101 % of control | T/C (endpoint: mean survival time, dose: 300.0 mg/kg/injection, schedule: Q01DX001 (ip), vehicle: saline): 112 % of control

CC(=O)OC1CC2CC1C1C=CCC21 (stereo unspecified)
T/C (endpoint: mean survival time, dose: 100.0 mg/kg/injection, schedule: Q01DX001 (ip), vehicle: saline with Tween-80): 97 % of control | T/C (endpoint: mean survival time, dose: 200.0 mg/kg/injection, schedule: Q01DX001 (ip), vehicle: saline with Tween-80): 95 % of control | T/C (endpoint: mean survival time, dose: 400.0 mg/kg/injection, schedule: Q01DX001 (ip), vehicle: saline with Tween-80): 100 % of control

Cc1nc2ccccc2cc1C[N+]12CN3CN(CN(C3)C1)C2
T/C (endpoint: mean survival time, dose: 25.0 mg/kg/injection, schedule: Q01DX009 (ip), vehicle: saline with Tween-80): 106 % of control | T/C [7]: 101 % of control | T/C (endpoint: mean survival time, dose: 50.0 mg/kg/injection, schedule: Q01DX009 (ip), vehicle: saline with Tween-80): 113 % of control | T/C (endpoint: mean survival time, dose: 50.0 mg/kg/injection, schedule: Q04DX003 (ip), vehicle: saline with Tween-80): 103 % of control | T/C (endpoint: mean survival time, dose: 100.0 mg/kg/injection, schedule: Q01DX001 (ip), vehicle: saline): 109 % of control

CCN1C(=O)/C(=C\C=C2/SCCN2C)OC1=S
T/C (endpoint: mean survival time, dose: 75.0 mg/kg/injection, schedule: Q01DX001 (ip), vehicle: other): 92 % of control | T/C (endpoint: mean survival time, dose: 150.0 mg/kg/injection, schedule: Q01DX001 (ip), vehicle: other): 100 % of control | T/C (endpoint: mean survival time, dose: 300.0 mg/kg/injection, schedule: Q01DX001 (ip), vehicle: other): 94 % of control

CC(=O)C1CCC2C3CC=C4CC(n5cc(C)c(=O)[nH]c5=O)CCC4(C)C3CCC12C (stereo unspecified)
T/C (endpoint: mean survival time, dose: 12.5 mg/kg/injection, schedule: Q04DX003 (ip), vehicle: Klucel (hydroxypropylcellulose) (HPC)): 90 % of control | T/C (endpoint: mean survival time, dose: 25.0 mg/kg/injection, schedule: Q01DX001 (ip), vehicle: Klucel (hydroxypropylcellulose) (HPC)): 95 % of control | T/C (endpoint: mean survival time, dose: 25.0 mg/kg/injection, schedule: Q04DX003 (ip), vehicle: Klucel (hydroxypropylcellulose) (HPC)): 96 % of control | T/C (endpoint: mean survival time, dose: 50.0 mg/kg/injection, schedule: Q01DX001 (ip), vehicle: Klucel (hydroxypropylcellulose) (HPC)): 100 % of control | T/C (endpoint: mean survival time, dose: 50.0 mg/kg/injection, schedule: Q04DX003 (ip), vehicle: Klucel (hydroxypropylcellulose) (HPC)): 94 % of control | T/C (endpoint: mean survival time, dose: 100.0 mg/kg/injection, schedule: Q01DX001 (ip), vehicle: Klucel (hydroxypropylcellulose) (HPC)): 88 % of control | T/C (endpoint: mean survival time, dose: 100.0 mg/kg/injection, schedule: Q04DX003 (ip), vehicle: Klucel (hydroxypropylcellulose) (HPC)): 100 % of control | T/C (endpoint: mean survival time, dose: 200.0 mg/kg/injection, schedule: Q01DX001 (ip), vehicle: Klucel (hydroxypropylcellulose) (HPC)): 91 % of control | T/C (endpoint: mean survival time, dose: 200.0 mg/kg/injection, schedule: Q04DX003 (ip), vehicle: Klucel (hydroxypropylcellulose) (HPC)): 102 % of control | T/C (endpoint: mean survival time, dose: 400.0 mg/kg/injection, schedule: Q01DX001 (ip), vehicle: Klucel (hydroxypropylcellulose) (HPC)): 95 % of control

CCOC(=O)C(C(C)=O)C(c1ccc(OC)cc1)C(C(C)=O)C(=O)OCC (stereo unspecified)
T/C (endpoint: mean survival time, dose: 100.0 mg/kg/injection, schedule: Q01DX009 (ip), vehicle: saline with Tween-80): 94 % of control | T/C [4]: 100 % of control | T/C (endpoint: mean survival time, dose: 200.0 mg/kg/injection, schedule: Q01DX009 (ip), vehicle: saline with Tween-80): 97 % of control | T/C [5]: 99 % of control | T/C (endpoint: mean survival time, dose: 400.0 mg/kg/injection, schedule: Q01DX009 (ip), vehicle: saline with Tween-80): 92 % of control | T/C [6]: 106 % of control

O=C(O)c1cc(C(=O)O)cc(S(=O)(=O)O)c1.[NH-]C1CCCCC1[NH-].[Pt+2]
T/C (endpoint: median survival time, dose: 3.12 mg/kg/injection, schedule: Q04DX003 (ip), vehicle: saline): 121 % of control and 103 % of control | T/C (endpoint: median survival time, dose: 12.5 mg/kg/injection, schedule: Q04DX003 (ip), vehicle: saline): 168 % of control | T/C (endpoint: median survival time, dose: 25.0 mg/kg/injection, schedule: Q04DX003 (ip), vehicle: saline): 176 % of control | T/C (endpoint: median survival time, dose: 50.0 mg/kg/injection, schedule: Q04DX003 (ip), vehicle: saline): 235 % of control and 350 % of control | T/C (endpoint: median survival time, dose: 100.0 mg/kg/injection, schedule: Q04DX003 (ip), vehicle: saline): 188 % of control
